These results are taken from paper PMC8856561, “Pharmacological and genetic activation of cAMP synthesis disrupts cholesterol utilization in Mycobacterium tuberculosis” (PLoS Pathogens, 2022).

pEC50, pIC50: −log10 of the molar value. ≈ marks a conversion by molar mass, not a printed value. Read-outs that look alike come from different tables or passages of the source.

What is called pEC50 is the EC50 on a negative log10 scale, so that one unit is a factor of ten. What is called IC50 is the concentration that gives 50% inhibition. A word on the pIC50: it is −log10 of the IC50, conventionally taken in molar units. Low readings indicate a large IC50, high ones a small IC50. One may read the solubility as how much of the substance goes into solution per volume. One may read the fraction unbound as free concentration divided by total concentration.

Data set [1] deals with Mtb. The data set is classed as cell-based, Mycobacterium tuberculosis. To be noted: 10 μM.
For data set [2] the following is noted: 0.98 µM, pH 7.2.
Protocol: Liver microsomal stability
(§1) Liver microsomes from mouse (Xenotech), human (Corning) rat (Xenotech) and dog (Xenotech)
(§2) were prepared in potassium phosphate buf fer (100 mM) pH 7. 2. Experimental compounds were
(§3) dissolved in DMSO (100%) to a stock concentration of 10 mmol. A working compound solution
(§4) was made by diluting 5 µL of compound stock into 495 µL of acetonitrile (100%) to the final
(§5) concentration of compound (100 µM) and acetonitrile (99%). Similarly, positive control
(§6) compounds (Testosterone, Dichlofenac, and Propafenone) were dissolved in DMSO (100% to a
(§7) stock concentration of 10 mM in DMSO, and were diluted with 495 µL of acetonitrile (100%) to
(§8) the final concentration of compound (100 µM) and acetonitrile (99%). NADPH•4Na was dissolved
(§9) into a 10 mM MgCl2 solution (10 unit/mL) generating as a 10x cofactor stock. Pre-warmed
(§10) incubation plates were filled with 445 µL potassium phosphate buffer and incubated for 10 min at
(§11) 37°C with constant shaking. Liver microsomes (54 µL) liver and NADPH stock (6 µL) were added
(§12) to the plates. Working solution of compounds (5 µL) was added into the incubation plates
(§13) containing microsomes and mixed thoroughly before incubating at 37°C for 60 min under constant
(§14) shaking at 100 rpm. Reactions were stopped by the addition of 100 µl cold acetonitrile (100%)
(§15) containing the internal standards tolbutamide (200 ng/mL) and labetalol (200 ng/mL). All plates
(§16) were shaken for 10 min, then centrifuged at 4000 rpm for 20 minutes at 4°C. The cell free
(§17) supernatant was transferred into HPLC water and mixed by shaking the plate for 10 min minutes
(§18) prior to metabolite quantification by LC-MS/MS a nalysis.
(§19) The equation of first order kinetics was used to calculate T1/2 and CLin t(mic ) (µL/min/mg):
Equation of first order kinetics:
(§20) <=@(#<S) X= Y<@Z[ \] #_⁄#‘ #<SZ[a[#$b cZ[@L<= <= ZL$S@<[=
𝐶𝐿 = 𝐶𝐿 ∙ #_ #<SZ[a[#La ∙ _ b<Y LZ
(§21) <=@(b<Y LZ) <=@(#<S) _ b<Y LZ D_ e[fg hL<_i@
(§22) T1/2 is half life and CLin t ( mic ) is the intrinsic clearance
(§23) CLin t ( mic ) = 0.693/half life/mg microsome protein per mL
(§24) CLin t(l iv e r) = CLin t ( mic ) * mg microsomal protein/g liver weight * g liver weight/kg body weight
Extraction ratio calculation
(§25) Extraction ratio (ER) = CLH/QH= CLint(liver) / (CLint(liver) + Qh)
Qh is Hepatic Blood Flow (mL/min/kg)
For data set [3], the system named is Erdman Mtb. Nature of the data set: Mouse infection, C3HeB/FeJ. The note with it: 50 mg/kg oral once-daily weeks 4-8, intranasal infection. The data set is classed as in vivo, C3HeB/FeJ mice.
In a further data set the test system is MKR strain of Mtb. More on the design: method as in PMID 33542438. The note with it: infected macrophages ref 13; cited from earlier work.
Data set [4] relates to Mtb in murine macrophages. Nature of the data set: Mtb replication in macrophages (intramacrophage EC50). The data set is classed as cell-based. The note with it: Mycobacterium tuberculosis, Macrophage.
Data set [5] concerns Mtb. Nature of the data set: microbe, parasite or virus in culture. The data set is classed as cell-based, Mycobacterium tuberculosis. The note with it: Mycobacterium tuberculosis, cholesterol media.
In data set [6] the test system is Mtb. Nature of the data set: microbe, parasite or virus in culture. The data set is classed as cell-based. The note with it: Mycobacterium tuberculosis; media with cholesterol and acetate.
Data set [7] in a line: in vitro. To be noted: human.
Data set [8] has as its system Mtb. Nature of the data set: microbe, parasite or virus in culture. The data set is classed as cell-based. To be noted: Mycobacterium tuberculosis; read-out: 7H9 OADC EC50.
A short description of data set [9]: in vitro. The note with it: human. The source holds these as a separate data set.
For data set [10], the system named is CYP1A2, CYP2C9, CYP2C19, CYP2D6, CYP3A4. Nature of the data set: in vitro. The note with it: human, pH 7.2.
The conditions of data set [11]: 0.98 µM, pH 7.2. The source holds these as a separate data set.
Protocol: Liver microsomal stability
as §1, §2, §3, §4, §5, §6, §7, §8, §9, §10, §11, §12, §13, §14, §15, §16, §17, §18, §19
Equation of first order kinetics:
as §20
𝐶𝐿 = 𝐶𝐿 ∙ #_ #<SZ[a[#La ∙ _ b<Y LZ
as §21, §22, §23, §24
Extraction ratio calculation
as §25
Qh is Hepatic Blood Flow (mL/min/kg)
In a further data set the target is hERG potassium channel (Homo sapiens, UniProt Q12809). The data set can be described thus: Manual patch clamp assay for hERG inhibition. In general terms: In patch-clamp work, channel activity is measured electrically.
Sequence of hERG potassium channel (Q12809 whole entry): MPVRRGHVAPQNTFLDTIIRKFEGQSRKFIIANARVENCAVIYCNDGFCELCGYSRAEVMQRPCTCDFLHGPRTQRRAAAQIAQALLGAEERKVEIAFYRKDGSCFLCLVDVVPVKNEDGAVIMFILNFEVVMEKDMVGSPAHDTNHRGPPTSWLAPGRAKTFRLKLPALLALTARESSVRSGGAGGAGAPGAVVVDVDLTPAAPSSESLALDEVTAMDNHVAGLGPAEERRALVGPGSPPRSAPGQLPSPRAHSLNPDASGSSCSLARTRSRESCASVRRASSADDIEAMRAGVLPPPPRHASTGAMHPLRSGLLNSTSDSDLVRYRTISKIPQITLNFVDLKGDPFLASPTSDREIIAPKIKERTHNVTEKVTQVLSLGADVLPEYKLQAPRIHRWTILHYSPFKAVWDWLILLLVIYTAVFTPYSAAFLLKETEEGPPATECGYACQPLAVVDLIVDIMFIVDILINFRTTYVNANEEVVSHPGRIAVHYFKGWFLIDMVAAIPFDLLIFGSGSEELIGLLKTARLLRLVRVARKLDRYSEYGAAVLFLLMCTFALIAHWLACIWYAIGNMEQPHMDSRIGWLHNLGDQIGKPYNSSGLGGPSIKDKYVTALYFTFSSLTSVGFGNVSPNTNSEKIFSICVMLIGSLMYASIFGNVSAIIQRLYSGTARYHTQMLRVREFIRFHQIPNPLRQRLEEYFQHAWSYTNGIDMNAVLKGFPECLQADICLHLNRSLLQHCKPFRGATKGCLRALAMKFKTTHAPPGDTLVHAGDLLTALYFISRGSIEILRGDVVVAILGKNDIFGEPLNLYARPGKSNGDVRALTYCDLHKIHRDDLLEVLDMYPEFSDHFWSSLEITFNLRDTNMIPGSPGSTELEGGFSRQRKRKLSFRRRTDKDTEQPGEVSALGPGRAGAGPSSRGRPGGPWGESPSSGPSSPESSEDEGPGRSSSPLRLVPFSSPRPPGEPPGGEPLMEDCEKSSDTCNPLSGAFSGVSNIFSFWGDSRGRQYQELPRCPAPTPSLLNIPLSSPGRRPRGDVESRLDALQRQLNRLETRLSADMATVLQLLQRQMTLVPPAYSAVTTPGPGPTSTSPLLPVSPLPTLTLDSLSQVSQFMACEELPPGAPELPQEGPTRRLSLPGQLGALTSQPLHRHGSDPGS
Data set [12] concerns Mtb. The data set can be described thus: Quantification of bacterial cAMP in Mtb. The data set is classed as cell-based, Mycobacterium tuberculosis.
Data set [13] deals with Mtb. The data set is classed as cell-based, Mycobacterium tuberculosis. The note with it: media containing fatty acid.
In data set [14] the test system is Mtb. The data set is classed as cell-based, Mycobacterium tuberculosis. The note with it: for 14CO2 release from [4-14C]-cholesterol: 10 μM.
The nature of another data set: physchem. To be noted: pH 6.8, aqueous buffer, kinetic from dmso stock.
In data set [15] the test system is Erdman Mtb. The data set can be described thus: Mouse infection, BALB/c. The data set is classed as in vivo, BALB/c mice.
Data set [16] can be described thus: in vitro. The note with it: CD-1, mouse, plasma.
The conditions of data set [17]: 0.98 µM, pH 7.2. The source holds these as a separate data set.
Protocol: Liver microsomal stability
as §1, §2, §3, §4, §5, §6, §7, §8, §9, §10, §11, §12, §13
(§26) shaking at 100 rpm. Reactions were stopped by the addition of 100 µl cold acetonitrile (100%) […]
(§27) prior to metabolite quantification by LC-MS/MS a nalysis. […]
For data set [18] the following is noted: 0.98 µM, pH 7.2. The source holds these as a separate data set.
Protocol: Liver microsomal stability
as §1, §2, §3, §4, §5, §6, §7, §8, §9, §10, §11, §12, §13, §26, §27
A short description of data set [19]: in vitro. To be noted: human, plasma.
Setting [20] is: 50 mg/kg oral once-daily weeks 4-8, intranasal infection, BALB/c.
Setting [21] is: 30mg/kg oral once-daily weeks 4-8, intranasal infection, BALB/c.

For the compound `Cc1nonc1CC(=O)N1CCC(n2nnc(-c3ccc(F)cc3)n2)CC1` [V-59, 1-(4-(5-(4-fluorophenyl)-2H-tetrazol-2-yl)piperidin-1-yl)-2-(4-methyl-1,2,5-oxadiazol-3-yl)ethan-1-one], the “decrease of prpD'::GFP signal” value was ~ 90% in the data set with Mtb [1] (CompFull strain) and ~ 50% with Mtb [1] (WT). Moreover, the “prpD'::GFP signal” value with Mtb [1] (ΔRv1625c or CompD204 strains, cholesterol media or macrophage infection) is “did not impact”. The same compound registered an ER human in [2] of 0.3. For the same compound, the “reduction in lung CFUs” value is given as ~ 0.5 log10 in the data set with Erdman Mtb [3] and ~ 0.4 log10 with Erdman Mtb [15] (setting [20]). In addition, the “intracellular survival of MKR strain” value in the data set on MKR strain of Mtb is on record as “selectively reduced intracellular survival”. Moreover, the pEC50 in data set [4] was 6.52; in the data set on Mtb [5] (read-out: EC50 in cholesterol media), 6.15; in the data set on Mtb [6], less than 4.30; in the data set on Mtb [8] it was less than 4.30. The CC50 at 72 h in “in vitro [7]” and in the data set “in vitro [9]” was more than 20 µM each time. Also, the IC50 at 10 min in [10] was more than 30 µM. In data set [11], this compound showed an ER mouse of 0.3. The same compound gave a negative logarithm of the IC50 (pIC50) at hERG potassium channel of 5.05. The cAMP induction was ~ 70 fold in the data set on Mtb [12] and ~ 140 fold in the data set with Mtb [12] (CompFull strain, 24 hours). For the same compound, the “14CO2 released from breakdown of [U-14C]-palmitate” value in the data set on Mtb [13] is listed as “no measurable effect”. The “decrease of 14CO2 release from [4-14C]-cholesterol” value with Mtb [14] is ~ 89%. For the same compound, the entries for the “14CO2 release from [4-14C]-cholesterol” value in the data set on Mtb [14] (CompD204 strain lacking cyclase domain) and with Mtb [14] (CompFull strain) were “did not prevent” and “inhibited”, respectively. The same compound had a solubility at 24 h in “physchem” of 4.63 µM (≈ 1.72 µg/mL). Also, the “reduction of extent of lung inflammation” value in the data set with Erdman Mtb [15] (setting [20]) is listed as ~ 50%. In addition, the unbound share (fraction unbound) at 4 h in the data set “in vitro [16]” was 0.173.
`Cc1nonc1CC(=O)N1CCC(c2nc(-c3ccc(F)cc3)no2)CC1` [mCIS635] yielded an ER human in data set [2] of 0.3. In addition, the pEC50 in data set [4] was 6.57; in the data set on Mtb [5] (read-out: Cholesterol EC50), 6.82; in the data set on Mtb [6], less than 4.30; in the data set with Mtb [8] it was less than 4.30. Besides, the CC50 at 72 h in “in vitro [7]” and in the data set “in vitro [9]” was more than 20 µM each time. Moreover, the IC50 at 10 min in data set [10] is more than 50 µM. In addition, in [11], the ER mouse turned out to be 0.4. Also, the negative-log IC50 (pIC50) against hERG potassium channel was 5.02. Moreover, in “physchem”, the concentration in solution (solubility at 24 h) was 34.4 µM (≈ 12.8 µg/mL). The same compound gave a fraction unbound at 4 h in “in vitro [16]” of 0.056.
The compound `Cn1ncnc1CC(=O)N1CCC(c2nc(-c3ccc(Cl)c(Cl)c3)no2)CC1` [mCLB073, 1-(4-(3-(3,4-dichlorophenyl)-1,2,4-oxadiazol-5-yl)-1-piperidinyl)-2-(2-methyl-2H-1,2,4-triazol-3-yl)-1-ethanone] gave an ER human in data set [2] of 0.3. The pEC50 in [4] is 5.92; in the data set on Mtb [5] (read-out: Cholesterol EC50) it was 7.57; in the data set on Mtb [6] it was less than 4.30; with Mtb [8], less than 4.30. This compound also came in with an ER dog in data set [17] of 0.3. Further, the CC50 at 72 h in the data set “in vitro [7]” and in “in vitro [9]” was more than 20 µM each time. The same compound had an ER rat in data set [18] of 0.2. This compound also returned a half-inhibitory concentration (IC50) at 10 min in data set [10] of more than 50 µM. The compound also had an ER mouse in data set [11] of 0.3. On hERG potassium channel, this compound gave a negative logarithm of the IC50 (pIC50) of 4.86. Further, in the data set with Mtb [12] (Figs 3B and S2C), the cAMP synthesis result is given as “activates cAMP synthesis”. In addition, the figures for the fraction unbound at 4 h in the data set “in vitro [19]” and in the data set “in vitro [16]” were 0.024 and 0.037, respectively. Further, in the data set “physchem”, the solubility at 24 h worked out at 160 µM (≈ 67.4 µg/mL). For the same compound, in the data set on Erdman Mtb [15] (setting [21]), the “decrease of extent of lung pathology” value is ~ 45%. For the same compound, the “reduction in lung CFUs” value is on record as ~ 0.4 log10 in the data set on Erdman Mtb [15] (setting [21]) and ~ 0.4 log10 in the data set on Erdman Mtb [15] (mouse, in vivo). Moreover, the “bacterial burden in the lungs when added to a sub-optimal dose of rifampicin” value in the data set on Erdman Mtb [15] (mouse, in vivo) is “did not increase the bacterial burden”.
In data set [2], `Cn1ncnc1CC(=O)N1CC2CC1CC2c1nc(-c2ccc(Cl)c(F)c2)no1` (centres unmarked) [mCLF178] registered an ER human of 0.3. The values for the pEC50 (in data set [4]; with Mtb [5] (read-out: Cholesterol EC50); with Mtb [8]) were less than 4.70, 7.08 and less than 4.30, respectively. For the same compound, in data set [17], the ER dog worked out at 0.3. The CC50 at 72 h in “in vitro [7]” and in “in vitro [9]” was more than 20 µM in each case. In data set [18], this compound yielded an ER rat of 0.2. In addition, the concentration for half-maximal inhibition (IC50) at 10 min in data set [10] is more than 30 µM. Besides, the ER mouse in [11] turned out to be 0.3. Besides, the pIC50 at hERG potassium channel was 4.64. For the same compound, the free fraction (fraction unbound) at 4 h in “in vitro [19]” was 0.111; in “in vitro [16]”, 0.116. Moreover, in “physchem”, the solubility at 24 h worked out at 186 µM (≈ 77.5 µg/mL).
